Source: US12496355B2, “Method for treating a cancer and/or cancer metastasis” (NANO TARGETING & THERAPY BIOPHARMA INC., priority 2022, dated 2025)
Entries after “also recorded” stand apart in the source; their conditions may differ.

Legend:
[1] = test system: tumor angiogenesis on chicken embryo chorioallantoic membrane; experiment: Chorioallantoic membrane (CAM) tumor model for angiogenesis; assay type: in vivo; conditions: administered on day 12, observed on days 14 and 16
Protocol: To evaluate the effect of MSNs on tumor angiogenesis, chicken embryo chorioallantoic membrane (CAM) tumor model was used. The fertilized eggs were incubated in the incubator for 10 days, then a small window was opened in the eggshell and the cancer cells were implanted on the CAM membrane near the aorta. MSN or Doxorubicin (DOX) was administered on day 12 when the tumor was formed and the angiogenesis near the tumor was observed on days 14 and 16.

[2] = test system: luciferase-expressing HCT-116 cells; experiment: Orthotopic colorectal cancer metastasis model, cells injected into cecum wall; conditions: 40 mg/kg twice per week, 8 administrations
Source text: 2×10^6 luciferase-expressing HCT-116 cells were directly injected into the wall of the cecum with surgery to establish the orthotopic colorectal cancer metastasis model, this model spontaneously produces highly metastatic tumors in adjacent intestinal tissues, peritoneum, and distance metastasis (spleen, kidney, liver, and diaphragm). […] The tumor growth and metastasis were observed by the IVIS system once a week and body weight was observed over the study period. To assess overall survival, animals were monitored up to the point of spontaneous death or approaching moribund status.

| Structure (SMILES) | blood vessels near the tumor (angiogenesis) [1] | primary tumor growth and metastases (IVIS bioluminescence) [2] |
| --- | --- | --- |
| COc1cccc2c1C(=O)c1c(O)c3c(c(O)c1C2=O)C[C@@](O)(C(=O)CO)C[C@@H]3O[C@H]1C[C@H](N)[C@H](O)[C@H](C)O1 [DOX, Doxorubicin] | blood vessels exhibited disintegration and decreased density |  |
| CCc1c2c(nc3ccc(OC(=O)N4CCC(N5CCCCC5)CC4)cc13)-c1cc3c(c(=O)n1C2)COC(=O)[C@]3(O)CC [IRI, irinotecan] |  | slower tumor growth rate compared to the control group; also recorded: inefficient inhibition of tumor growth and metastases |
